Values quoted from earlier work as cited in patent US6916480B2, “Wiper containing a controlled-release anti-microbial agent” (Kimberly-Clark Worldwide, Inc., priority 1999, dated 2005).

Assays:
[1] = test system: E. Coli; conditions: according to most literature
[2] = test system: Salmonella spp.; conditions: according to most literature

## [Ag] [silver]
[1]
  silver content that can effectively kill microbes: 20 parts per billion (ppb)
[2]
  silver content that can effectively kill microbes: 20 parts per billion (ppb)
